Experimental findings from paper PMC12102759 (Protein Science : A Publication of the Protein Society, 2025) are described below.

For this experiment, the system named is G3BP1 NFT2. It is filed as binding, human. Particulars: library DMS-CoV, bait G3BP1 NFT2, prey N, listed as aa = residue placed at this position, column sums to 1.

Like-named read-outs stand apart in the source and are kept apart here.

As to “RNAPRITFGGPSDSTG D13A (RNAPRITFGGPSASTG)”, under “peptide RNAPRITFGGPSDSTG”, the “DMS PSSM value, D (position 13)” value was 0.
In the case of APRITFGGPSDSTGSN F6Y (APRITYGGPSDSTGSN), the “DMS PSSM value, F (position 6)” value (peptide APRITFGGPSDSTGSN) amounted to 0.004533.
Take “RNAPRITFGGPSDSTG P11Y (RNAPRITFGGYSDSTG)”: the “DMS PSSM value, P (position 11)” value (peptide RNAPRITFGGPSDSTG) came out at 0.
As to “APRITFGGPSDSTGSN S12T (APRITFGGPSDTTGSN)”, the “DMS PSSM value, S (position 12)” value (peptide APRITFGGPSDSTGSN) is listed as 0.00392.
On to APRITFGGPSDSTGSN P9R (APRITFGGRSDSTGSN), for which, where the note is “peptide APRITFGGPSDSTGSN”, the “DMS PSSM value, P (position 9)” value was determined as 0.
With “RNAPRITFGGPSDSTG D13Y (RNAPRITFGGPSYSTG)”, the “DMS PSSM value, D (position 13)” value (peptide RNAPRITFGGPSDSTG) worked out at 0.
Consider APRITFGGPSDSTGSN T5F (APRIFFGGPSDSTGSN), for which, under “peptide APRITFGGPSDSTGSN”, the “DMS PSSM value, T (position 5)” value is given as 0.
On to RNAPRITFGGPSDSTG N2D (RDAPRITFGGPSDSTG), for which the “DMS PSSM value, N (position 2)” value (peptide RNAPRITFGGPSDSTG) was determined as 0.4666.
In the case of “RNAPRITFGGPSDSTG S14D (RNAPRITFGGPSDDTG)”, the “DMS PSSM value, S (position 14)” value (peptide RNAPRITFGGPSDSTG) is recorded as 0.
As to “APRITFGGPSDSTGSN D11H (APRITFGGPSHSTGSN)”, for the setting “peptide APRITFGGPSDSTGSN”, the “DMS PSSM value, D (position 11)” value worked out at 0.001494.
For APRITFGGPSDSTGSN I4A (APRATFGGPSDSTGSN), for the setting “peptide APRITFGGPSDSTGSN”, the “DMS PSSM value, I (position 4)” value amounted to 0.
In the case of APRITFGGPSDSTGSN T5I (APRIIFGGPSDSTGSN), the “DMS PSSM value, T (position 5)” value (peptide APRITFGGPSDSTGSN) came to 0.002921.
“RNAPRITFGGPSDSTG S12I (RNAPRITFGGPIDSTG)”: where the note is “peptide RNAPRITFGGPSDSTG”, the “DMS PSSM value, S (position 12)” value worked out at 0.
With APRITFGGPSDSTGSN I4F (APRFTFGGPSDSTGSN), the “DMS PSSM value, I (position 4)” value (peptide APRITFGGPSDSTGSN) amounted to 0.
Consider APRITFGGPSDSTGSN G7Q (APRITFQGPSDSTGSN), for which the “DMS PSSM value, G (position 7)” value (peptide APRITFGGPSDSTGSN) was 0.005359.
Regarding APRITFGGPSDSTGSN P9A (APRITFGGASDSTGSN), for the setting “peptide APRITFGGPSDSTGSN”, the “DMS PSSM value, P (position 9)” value was determined as 0.001999.
Take APRITFGGPSDSTGSN I4D (APRDTFGGPSDSTGSN): where the note is “peptide APRITFGGPSDSTGSN”, the “DMS PSSM value, I (position 4)” value came out at 0.
Take “RNAPRITFGGPSDSTG P11V (RNAPRITFGGVSDSTG)”: for the setting “peptide RNAPRITFGGPSDSTG”, the “DMS PSSM value, P (position 11)” value came to 0.
Take “RNAPRITFGGPSDSTG S14L (RNAPRITFGGPSDLTG)”: the “DMS PSSM value, S (position 14)” value (peptide RNAPRITFGGPSDSTG) was found to be 0.
Turning to APRITFGGPSDSTGSN F6R (APRITRGGPSDSTGSN), the “DMS PSSM value, F (position 6)” value (peptide APRITFGGPSDSTGSN) came out at 0.
Take RNAPRITFGGPSDSTG A3T (RNTPRITFGGPSDSTG): the “DMS PSSM value, A (position 3)” value (peptide RNAPRITFGGPSDSTG) was 0.
With “APRITFGGPSDSTGSN D11M (APRITFGGPSMSTGSN)”, the “DMS PSSM value, D (position 11)” value (peptide APRITFGGPSDSTGSN) amounted to 0.4258.
For the sequence “RNAPRITFGGPSDSTG S14F (RNAPRITFGGPSDFTG)”, under “peptide RNAPRITFGGPSDSTG”, the “DMS PSSM value, S (position 14)” value worked out at 0.
Turning to “RNAPRITFGGPSDSTG S12F (RNAPRITFGGPFDSTG)”, the “DMS PSSM value, S (position 12)” value (peptide RNAPRITFGGPSDSTG) is on record as 0.
Regarding APRITFGGPSDSTGSN P2D (ADRITFGGPSDSTGSN), for the setting “peptide APRITFGGPSDSTGSN”, the “DMS PSSM value, P (position 2)” value amounted to 0.06205.
As to “APRITFGGPSDSTGSN S10L (APRITFGGPLDSTGSN)”, the “DMS PSSM value, S (position 10)” value (peptide APRITFGGPSDSTGSN) is 0.002677.
As to “RNAPRITFGGPSDSTG P11K (RNAPRITFGGKSDSTG)”, the “DMS PSSM value, P (position 11)” value (peptide RNAPRITFGGPSDSTG) is on record as 0.
Turning to “RNAPRITFGGPSDSTG D13R (RNAPRITFGGPSRSTG)”, the “DMS PSSM value, D (position 13)” value (peptide RNAPRITFGGPSDSTG) amounted to 0.
Regarding “APRITFGGPSDSTGSN T13L (APRITFGGPSDSLGSN)”, the “DMS PSSM value, T (position 13)” value (peptide APRITFGGPSDSTGSN) came out at 0.003677.
As for APRITFGGPSDSTGSN R3M (APMITFGGPSDSTGSN), under “peptide APRITFGGPSDSTGSN”, the “DMS PSSM value, R (position 3)” value turned out to be 0.03758.
As for APRITFGGPSDSTGSN A1T (TPRITFGGPSDSTGSN), under “peptide APRITFGGPSDSTGSN”, the “DMS PSSM value, A (position 1)” value was 0.07786.
RNAPRITFGGPSDSTG P4F (RNAFRITFGGPSDSTG): the “DMS PSSM value, P (position 4)” value (peptide RNAPRITFGGPSDSTG) worked out at 0.
In the case of APRITFGGPSDSTGSN G7W (APRITFWGPSDSTGSN), where the note is “peptide APRITFGGPSDSTGSN”, the “DMS PSSM value, G (position 7)” value came out at 0.
Consider RNAPRITFGGPSDSTG R5E (RNAPEITFGGPSDSTG), for which the “DMS PSSM value, R (position 5)” value (peptide RNAPRITFGGPSDSTG) is reported as 0.1354.
In the case of APRITFGGPSDSTGSN A1I (IPRITFGGPSDSTGSN), where the note is “peptide APRITFGGPSDSTGSN”, the “DMS PSSM value, A (position 1)” value amounted to 0.004309.
Take RNAPRITFGGPSDSTG G9L (RNAPRITFLGPSDSTG): the “DMS PSSM value, G (position 9)” value (peptide RNAPRITFGGPSDSTG) amounted to 0.
As for “RNAPRITFGGPSDSTG T15H (RNAPRITFGGPSDSHG)”, the “DMS PSSM value, T (position 15)” value (peptide RNAPRITFGGPSDSTG) amounted to 0.
Take “APRITFGGPSDSTGSN S15P (APRITFGGPSDSTGPN)”: under “peptide APRITFGGPSDSTGSN”, the “DMS PSSM value, S (position 15)” value came to 0.1504.
With APRITFGGPSDSTGSN I4S (APRSTFGGPSDSTGSN), the “DMS PSSM value, I (position 4)” value (peptide APRITFGGPSDSTGSN) is reported as 0.
For the sequence APRITFGGPSDSTGSN G8E (APRITFGEPSDSTGSN), the “DMS PSSM value, G (position 8)” value (peptide APRITFGGPSDSTGSN) stood at 0.0007374.
As to “APRITFGGPSDSTGSN S15T (APRITFGGPSDSTGTN)”, the “DMS PSSM value, S (position 15)” value (peptide APRITFGGPSDSTGSN) worked out at 0.008335.
Take APRITFGGPSDSTGSN T5Y (APRIYFGGPSDSTGSN): for the setting “peptide APRITFGGPSDSTGSN”, the “DMS PSSM value, T (position 5)” value is 0.
